From US5753694A, “Anticonvulsant derivatives useful in treating amyotrophic lateral sclerosis (ALS)” (Ortho Pharmaceutical Corporation, priority 1997, dated 1998)
Like-named read-outs stand apart in the source and are kept apart here. One block for each compound: values may come before it.

Tests used:
[1] = system: AMPA/kainate subtype of glutamate receptors; assay: Antagonism of kainate-evoked currents, perforated whole-cell patch-clamp on primary cultures of hippocampal neurons; format: cell-based, rat; details: for EC50: cultured fetal rat hippocampal neurons
Protocol: Johnson Pharmaceutical Research Institute, Internal Research Reports, Document ID Accession Numbers A500,960 and 398533:1). In these studies, primary cultures enriched in neurons derived from the hippocampus of fetal rats were grown in vitro for 14 to 21 days under conditions that allowed them to reach a high density and develop numerous synaptic contacts. Perforated whole-cell patch-clamp procedures were used to study electrical properties of the neuronal membranes. In this procedure electrical contact between the recording electrode and the intracellular fluid is achieved by using amphotericin B to form pores in the cell membrane. This enables the cell membrane potential or current flow across the cell membrane to be recorded accurately. Kainate, topiramate and other test compounds were microperfused onto the neurons using a multi-barrel Teflon concentration clamp pipette. Topiramate (dissolved in DMSO at 1M, then diluted in the medium in which the neurons were incubated) was applied at concentrations of […] kainate was applied at concentrations 0.1 or 1 mM.
In an initial set of experiments, the antagonistic action of topiramate on kainate-evoked currents was determined as a function of the membrane potential.
The time-course of topiramate's antagonistic activity was evaluated in a second set of experiments. Kainate was pulsed into the bathing fluid for 3 sec at 1 min intervals, and once a baseline for the kainate-evoked current was established topiramate was applied constantly for a period ranging from a few min to 20 min. […] Concentration-response curves were generated for both phases of topiramate's blocking effect. The EC50 was approximately 1 micromolar for each phase. However, the concentration required for a maximum response was approximately 0.1 mM for the first phase (phase I block) but only approximately 0.010 mM for second (phase II block).
Because of the compelling evidence that the functional state of glutamate receptors is regulated partly by protein kinases and phosphatases (L. Y. WANG, F. A. TAVERNA, X. P. HUANG, J. F. MACDONALD, and D. R. HAMPSON, Science 259, 1173-1175, 1993), the phase II blocking effect could be explained by dephosphorylation of the kainate-activated receptors. Based on evidence that cAMP-dependent protein kinase (PKA) modulates kainate activated receptors(L. Y. WANG, F. A. TAVERNA, X. P. HUANG, J. F. MACDONALD, and D. R. HAMPSON, Science 259, 1173-1175, 1993), a set of experiments was undertaken to determine if dibutyryl cyclic AMP could restore the excitatory activity of kainate subsequent to topiramate's phase II block; i.e., cause the "irreversible" effect to be reversed. […] In another set of experiments the nonspecific phosphatase inhibitor okadaic acid was applied at 1 micromolar prior to, and during, the application of topiramate to determine if inhibiting the dephosphorylation of the kainate activated receptors would prevent the phase II blocking effect of topiramate.

[2] = system: animal model of kindled epilepsy; details: cited from earlier work
[3] = system: rodent models of epilepsy; details: several rodent models of epilepsy; cited from earlier work
human epilepsy = details: clinical trials of human epilepsy; cited from earlier work
[4] = 1 micromolar, prior to and during topiramate

SMILES: CCCC(=O)Nc1ncnc2c1ncn2[C@@H]1O[C@@H]2COP(=O)(O)O[C@H]2[C@H]1OC(=O)CCC [dibutyryl cyclic AMP]
restoration of kainate-evoked current after topiramate's phase II block ([1]; applied subsequent to topiramate phase II block): partially or totally restored the kainate-evoked current

SMILES: C=C1[C@@H](O)[C@@H]2O[C@]3(CC[C@H](/C=C/[C@@H](C)[C@@H]4CC(C)=C[C@@]5(O[C@H](C[C@@](C)(O)C(=O)O)CC[C@H]5O)O4)O3)CC[C@H]2O[C@@H]1[C@@H](O)C[C@H](C)[C@H]1O[C@@]2(CCCCO2)CC[C@H]1C [okadaic acid]
effect on kainate-evoked current prior to application of topiramate ([1]; 1 micromolar): little effect
effect on topiramate's initial antagonistic effect (phase I block) [1, 4]: did not affect
effect on topiramate's phase II block [1, 4]: phase II block was prevented

EC50 ([1]; phase I block (early, reversible), read-out: EC50 of block of kainate-evoked current, first phase (phase I block)): ~1000 nM
EC50 ([1]; phase II block (constant application more than 10 min), read-out: EC50 of block of kainate-evoked current, second phase (phase II block)): ~1000 nM
SMILES: CC1(C)O[C@@H]2[C@@H](CO[C@@]3(COS(N)(=O)=O)OC(C)(C)O[C@@H]23)O1 [topiramate, 2,3:4,5-bis-O-(1-methylethylidene)-β-D-fructopyranosesulfamate]
onset of partial block of kainate-evoked current ([1]; kainate pulsed 3 sec at 1 min intervals, topiramate applied constantly): evident within one min
concentration required for a maximum response, phase I block ([1]; phase I block): approximately 0.1 mM
concentration required for a maximum response, phase II block ([1]; phase II block): approximately 0.010 mM
magnitude of antagonistic effect on kainate-induced membrane currents after prolonged application ([1]; topiramate applied constantly for more than 10 min): increased markedly
kainate-evoked current after withdrawal following prolonged application ([1]; topiramate applied more than 10 min, then withdrawn): remained depressed
reversibility of early block on washout ([1]; topiramate withdrawn (washed out) within 5 min): readily reversed
dependence of antagonistic effect on membrane potential ([1]; voltage-clamped potentials -60 mV to +60 mV at 20 mV increments): most effective at membrane potentials near the resting state
block of seizures [2]: effectively block seizures
block of seizures [3]: effectively block seizures
efficacy in simple and complex partial seizures and secondarily generalized seizures (human epilepsy): effective as adjunctive therapy or as monotherapy
